Data set [1] concerns the target T1, Tyrosine-protein kinase JAK3 (Homo sapiens, UniProt P52333).
T1 sequence (P52333 whole entry): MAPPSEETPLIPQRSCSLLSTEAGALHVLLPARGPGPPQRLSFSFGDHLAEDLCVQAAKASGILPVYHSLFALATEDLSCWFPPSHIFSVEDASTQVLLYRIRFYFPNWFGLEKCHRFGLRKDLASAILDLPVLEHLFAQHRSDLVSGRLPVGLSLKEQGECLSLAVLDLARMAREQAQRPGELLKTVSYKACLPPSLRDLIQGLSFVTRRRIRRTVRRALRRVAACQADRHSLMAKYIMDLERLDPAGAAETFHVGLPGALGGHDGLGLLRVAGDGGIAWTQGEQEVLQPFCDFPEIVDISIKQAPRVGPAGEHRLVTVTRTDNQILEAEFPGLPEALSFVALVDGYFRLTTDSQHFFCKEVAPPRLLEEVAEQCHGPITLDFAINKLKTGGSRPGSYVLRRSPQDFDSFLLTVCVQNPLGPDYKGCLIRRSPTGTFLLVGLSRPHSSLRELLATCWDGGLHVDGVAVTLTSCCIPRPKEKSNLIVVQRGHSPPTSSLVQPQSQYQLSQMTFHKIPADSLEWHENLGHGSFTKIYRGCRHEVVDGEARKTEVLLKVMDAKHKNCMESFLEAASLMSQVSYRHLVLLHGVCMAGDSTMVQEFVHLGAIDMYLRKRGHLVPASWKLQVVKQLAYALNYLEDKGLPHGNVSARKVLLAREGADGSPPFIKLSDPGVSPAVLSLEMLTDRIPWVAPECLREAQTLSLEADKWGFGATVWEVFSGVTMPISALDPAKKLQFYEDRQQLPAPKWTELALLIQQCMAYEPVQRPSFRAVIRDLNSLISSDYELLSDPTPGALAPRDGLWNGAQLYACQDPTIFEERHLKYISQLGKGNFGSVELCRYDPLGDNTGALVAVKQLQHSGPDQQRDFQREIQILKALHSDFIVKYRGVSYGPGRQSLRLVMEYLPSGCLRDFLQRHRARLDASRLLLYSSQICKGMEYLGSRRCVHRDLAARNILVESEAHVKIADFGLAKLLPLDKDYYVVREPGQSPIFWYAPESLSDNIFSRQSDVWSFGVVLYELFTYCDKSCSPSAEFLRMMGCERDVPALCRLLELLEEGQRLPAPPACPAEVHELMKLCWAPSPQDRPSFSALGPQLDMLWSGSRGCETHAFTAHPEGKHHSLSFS
The data set is described as follows: Inhibition of human JAK3 kinase domain using biotin-Lyn-substrate-2 as substrate incubated for 1 hr by ELISA method. Background: ELISA stands for enzyme-linked immunosorbent assay.

The target of data set [2] is Tyrosine-protein kinase JAK2 (Homo sapiens, UniProt O60674). In words: Inhibition of human JAK2 kinase domain using biotin-Lyn-substrate-2 as substrate incubated for 1 hr by ELISA method.
For data set [3], the target named is Voltage-gated inwardly rectifying potassium channel KCNH2 (Homo sapiens, UniProt Q12809).
Description: Inhibition of human ERG expressed in CHOK1 cells incubated for 10 mins by Rb efflux assay
For data set [4], the target named is Tyrosine-protein kinase JAK1 (Homo sapiens, UniProt P23458). The data set is described as follows: Inhibition of human JAK1 kinase domain using biotin-Lyn-substrate-2 as substrate incubated for 1 hr by ELISA method.
Data set [5] in a line: Effective permeability of the compound at pH 7.4 by PAMPA method. To be noted: read-out: Peff. The format is physicochemical.
Data set [6] in a line: Inhibition of JAK1/JAK3 in Lewis rat splenocytes assessed as reduction in IL2-stimulated T-cell proliferation incubated for 3 days by alamar blue dye based fluorescence assay. To be noted: 72 h. (In general: The colour change of resazurin is a common sign of viable cells or microbes.)
Data set [7] is described as follows: Intrinsic clearance in rat liver microsomes at 0.2 uM in presence of NADPH generating system by LC/MS/MS method. Format: ADME. To be noted: read-out: CLH. In general terms: Microsomes from liver hold many membrane-bound enzymes, among them those of drug oxidation.

These results are taken from ChEMBL document CHEMBL3593212, “Synthesis and evaluation of novel 1H-pyrrolo[2,3-b]pyridine-5-carboxamide derivatives as potent and orally efficacious immunomodulators targeting JAK3” (Bioorg Med Chem, 2015).

A value given as a limit tells only on which side of the number the result lay.

For orientation: IC50 means the midpoint of a concentration-inhibition curve.

Voltage-gated inwardly rectifying potassium channel KCNH2, sequence (Q12809 whole entry, the tested form may be a part): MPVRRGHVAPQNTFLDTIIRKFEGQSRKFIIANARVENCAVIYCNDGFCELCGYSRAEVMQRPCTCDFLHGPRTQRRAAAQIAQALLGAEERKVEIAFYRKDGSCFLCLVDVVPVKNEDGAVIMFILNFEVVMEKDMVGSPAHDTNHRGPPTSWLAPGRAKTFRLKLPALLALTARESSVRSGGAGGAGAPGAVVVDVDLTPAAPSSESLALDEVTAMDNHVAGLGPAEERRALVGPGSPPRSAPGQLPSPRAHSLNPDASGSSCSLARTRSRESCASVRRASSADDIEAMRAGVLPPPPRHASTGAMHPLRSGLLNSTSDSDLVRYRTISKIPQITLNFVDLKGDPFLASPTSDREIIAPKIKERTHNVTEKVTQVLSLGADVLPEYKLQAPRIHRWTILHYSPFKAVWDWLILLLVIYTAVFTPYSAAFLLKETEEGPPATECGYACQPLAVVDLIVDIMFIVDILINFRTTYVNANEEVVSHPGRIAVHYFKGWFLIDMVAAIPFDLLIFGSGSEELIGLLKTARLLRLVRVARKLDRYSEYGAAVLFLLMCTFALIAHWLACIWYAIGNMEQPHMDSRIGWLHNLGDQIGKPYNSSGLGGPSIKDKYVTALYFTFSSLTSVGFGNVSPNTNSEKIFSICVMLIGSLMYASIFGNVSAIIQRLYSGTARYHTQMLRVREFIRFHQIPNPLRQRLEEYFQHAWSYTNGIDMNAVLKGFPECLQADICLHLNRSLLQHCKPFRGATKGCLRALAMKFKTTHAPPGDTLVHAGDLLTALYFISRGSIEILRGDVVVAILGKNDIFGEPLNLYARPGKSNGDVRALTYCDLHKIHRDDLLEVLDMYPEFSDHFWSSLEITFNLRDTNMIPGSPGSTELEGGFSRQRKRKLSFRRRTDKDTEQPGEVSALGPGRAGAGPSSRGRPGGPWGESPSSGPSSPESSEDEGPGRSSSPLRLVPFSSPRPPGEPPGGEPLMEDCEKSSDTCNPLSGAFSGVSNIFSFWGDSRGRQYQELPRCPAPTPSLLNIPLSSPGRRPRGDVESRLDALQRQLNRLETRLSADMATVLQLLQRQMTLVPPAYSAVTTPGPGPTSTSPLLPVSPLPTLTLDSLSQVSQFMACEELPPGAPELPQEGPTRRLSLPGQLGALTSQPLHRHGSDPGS
Tyrosine-protein kinase JAK1, sequence (P23458 whole entry, the tested form may be a part): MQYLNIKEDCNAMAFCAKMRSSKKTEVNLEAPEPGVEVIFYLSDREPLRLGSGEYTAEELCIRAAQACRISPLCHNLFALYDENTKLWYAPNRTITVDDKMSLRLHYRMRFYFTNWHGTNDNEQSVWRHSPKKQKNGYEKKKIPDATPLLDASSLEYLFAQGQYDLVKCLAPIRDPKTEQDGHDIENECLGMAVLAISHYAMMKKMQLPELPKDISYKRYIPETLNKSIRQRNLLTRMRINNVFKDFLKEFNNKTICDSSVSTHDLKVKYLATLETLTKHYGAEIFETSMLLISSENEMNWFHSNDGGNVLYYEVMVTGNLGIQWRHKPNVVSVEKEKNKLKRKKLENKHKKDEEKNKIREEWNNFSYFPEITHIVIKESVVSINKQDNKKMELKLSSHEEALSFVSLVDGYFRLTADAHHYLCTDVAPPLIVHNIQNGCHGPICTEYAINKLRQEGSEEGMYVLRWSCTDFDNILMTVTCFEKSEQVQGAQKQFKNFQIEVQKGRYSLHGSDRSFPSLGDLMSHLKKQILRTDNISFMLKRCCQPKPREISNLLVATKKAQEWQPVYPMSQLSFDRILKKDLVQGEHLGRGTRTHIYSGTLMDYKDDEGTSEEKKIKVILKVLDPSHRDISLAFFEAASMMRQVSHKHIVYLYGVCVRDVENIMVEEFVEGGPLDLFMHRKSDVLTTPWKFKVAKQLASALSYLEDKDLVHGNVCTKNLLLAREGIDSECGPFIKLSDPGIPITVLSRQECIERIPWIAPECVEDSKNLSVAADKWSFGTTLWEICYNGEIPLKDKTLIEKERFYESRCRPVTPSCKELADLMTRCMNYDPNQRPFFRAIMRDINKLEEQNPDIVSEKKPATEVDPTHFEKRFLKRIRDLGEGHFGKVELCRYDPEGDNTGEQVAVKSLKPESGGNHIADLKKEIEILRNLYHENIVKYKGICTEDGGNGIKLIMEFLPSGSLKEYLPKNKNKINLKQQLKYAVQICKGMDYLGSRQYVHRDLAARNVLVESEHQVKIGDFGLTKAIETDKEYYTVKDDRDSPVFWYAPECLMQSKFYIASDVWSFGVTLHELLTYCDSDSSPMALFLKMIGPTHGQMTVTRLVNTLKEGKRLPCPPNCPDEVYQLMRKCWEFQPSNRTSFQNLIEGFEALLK
Tyrosine-protein kinase JAK2, sequence (O60674 whole entry, the tested form may be a part): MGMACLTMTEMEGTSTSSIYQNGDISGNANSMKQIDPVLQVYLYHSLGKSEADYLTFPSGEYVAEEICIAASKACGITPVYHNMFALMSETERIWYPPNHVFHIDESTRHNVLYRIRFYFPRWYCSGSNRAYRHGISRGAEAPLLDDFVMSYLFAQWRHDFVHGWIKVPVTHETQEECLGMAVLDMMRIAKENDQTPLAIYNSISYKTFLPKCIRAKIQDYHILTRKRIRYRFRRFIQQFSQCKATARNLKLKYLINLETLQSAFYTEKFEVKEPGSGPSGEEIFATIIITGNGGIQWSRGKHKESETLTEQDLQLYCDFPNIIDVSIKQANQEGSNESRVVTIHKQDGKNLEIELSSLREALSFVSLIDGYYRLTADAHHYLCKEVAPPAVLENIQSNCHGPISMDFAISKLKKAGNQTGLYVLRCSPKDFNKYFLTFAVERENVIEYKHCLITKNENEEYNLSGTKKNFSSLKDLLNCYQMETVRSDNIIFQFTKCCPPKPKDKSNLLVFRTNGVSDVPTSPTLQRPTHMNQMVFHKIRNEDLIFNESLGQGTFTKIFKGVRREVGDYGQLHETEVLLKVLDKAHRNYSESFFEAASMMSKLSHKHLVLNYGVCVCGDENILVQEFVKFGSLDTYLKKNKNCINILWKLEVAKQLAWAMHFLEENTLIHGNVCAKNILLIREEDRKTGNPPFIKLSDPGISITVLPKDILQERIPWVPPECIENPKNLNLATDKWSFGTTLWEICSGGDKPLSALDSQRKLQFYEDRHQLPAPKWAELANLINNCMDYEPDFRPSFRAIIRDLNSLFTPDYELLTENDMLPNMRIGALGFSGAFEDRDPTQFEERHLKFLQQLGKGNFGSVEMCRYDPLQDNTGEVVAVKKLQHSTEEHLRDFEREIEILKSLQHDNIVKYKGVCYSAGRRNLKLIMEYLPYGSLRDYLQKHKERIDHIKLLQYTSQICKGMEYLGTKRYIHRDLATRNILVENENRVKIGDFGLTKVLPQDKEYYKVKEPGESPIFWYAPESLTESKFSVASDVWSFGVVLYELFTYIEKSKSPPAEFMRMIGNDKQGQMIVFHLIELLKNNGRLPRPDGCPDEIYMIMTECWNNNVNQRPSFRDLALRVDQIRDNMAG

`CS(=O)(=O)N1CCC(Nc2c(C(N)=O)cnc3[nH]ccc23)CC1`: the IC50 in data set [1] was determined as 150 nM; in data set [2] it was 190 nM.
For `N#Cc1ccc(N2CCC(Nc3c(C(N)=O)cnc4[nH]ccc34)CC2)nn1`, the IC50 in data set [3] was above 100000 nM; in data set [4], 22 nM; in data set [6], 140 nM; in data set [1], 1.2 nM; in data set [2], 12 nM. In data set [5], the Papp is below 0.2 ×10⁻⁶ cm/s.
With `C[C@H]1CN(c2ccc(C#N)cn2)CC[C@H]1Nc1c(C(N)=O)cnc2[nH]ccc12` (relative stereo), the IC50 in data set [4] is 11 nM; in data set [1], 0.78 nM; in data set [2], 14 nM.
For the compound `N#Cc1cnc(N2CCC(Nc3c(C(N)=O)cnc4[nH]ccc34)CC2)cn1`, the half-inhibitory concentration (IC50) is above 100000 nM in data set [3]; 35 nM in data set [4]; 77 nM in data set [6]; 3.6 nM in data set [1]; 41 nM in data set [2]. Further, the Papp in data set [5] is below 0.2 ×10⁻⁶ cm/s.
As for `NC(=O)c1cnc2[nH]ccc2c1NC1CCN(c2ccc(CO)cn2)CC1`, the IC50 was determined as 180 nM in data set [4], 9.2 nM in data set [1] and 100 nM in data set [2].
On to `NC(=O)c1cnc2[nH]ccc2c1N[C@@H]1CCCN(Cc2ccccc2)C1`, for which the IC50 in data set [1] was 240 nM; in data set [2], 430 nM.
As for `N#Cc1ccc(N2CC[C@H](Nc3c(C(N)=O)cnc4[nH]ccc34)[C@H](F)C2)nc1`, the IC50 in data set [3] is above 100000 nM; in data set [4], 27 nM; in data set [6] it was 44 nM; in data set [1] it was 1.7 nM; in data set [2], 17 nM. In data set [5], the Papp turned out to be 5 ×10⁻⁶ cm/s.
`N#Cc1ccc(N2CCC(Nc3c(C(N)=O)cnc4[nH]ccc34)CC2)cc1`: the values for the IC50 in data set [4] and in data set [2] were 50 nM and 49 nM, respectively. The CLint scaled at 0.2 µM in data set [7] worked out at 262 mL/min/kg.
For `NC(=O)c1ccc(N2CCC(Nc3c(C(N)=O)cnc4[nH]ccc34)CC2)nc1`, the values for the IC50 in data set [4], in data set [1] and in data set [2] were 58 nM, 5.2 nM and 41 nM, respectively.
Consider `C[C@@H]1CCCC[C@@H]1Nc1c(C(N)=O)cnc2[nH]ccc12`, for which the IC50 in data set [4] was 47 nM; in data set [6], 86 nM; in data set [1], 5.1 nM; in data set [2] it was 30 nM. Besides, the CLint scaled at 0.2 µM in data set [7] was above 1000 mL/min/kg.
As to `N#Cc1ccc(N2CCC(Nc3c(C(N)=O)cnc4[nH]ccc34)CC2)nc1`, the IC50 is 16 nM in data set [4], 27 nM in data set [6], 1.3 nM in data set [1] and 18 nM in data set [2]. Besides, the Papp in data set [5] was 26 ×10⁻⁶ cm/s. In addition, the CLint scaled at 0.2 µM in data set [7] came out at 204 mL/min/kg.
For the compound `N#CCC(=O)N1CCC(Nc2c(C(N)=O)cnc3[nH]ccc23)CC1`, the IC50 in data set [4] is 110 nM; in data set [1], 46 nM; in data set [2] it was 200 nM.
For `CN1CCC(Nc2c(C(N)=O)cnc3[nH]ccc23)CC1` the same measures were 300 nM, 90 nM and 310 nM.
With `NC(=O)c1cnc2[nH]ccc2c1NC1CCN(c2ccc(C(F)(F)F)cn2)CC1`, the results for the IC50 in data set [1] and in data set [2] were 25 nM and 370 nM, respectively.
On the same counts, the results for `CC(=O)N1CCC(Nc2c(C(N)=O)cnc3[nH]ccc23)CC1` are 340 nM and 640 nM.
In data set [2], `NC(=O)c1cnc2[nH]ccc2c1NC1CCN(Cc2ccccc2)CC1` gave an IC50 of 84 nM.
In the case of `N#Cc1cccc(CN2CCC(Nc3c(C(N)=O)cnc4[nH]ccc34)CC2)c1`, the IC50 in data set [1] came to 25 nM; in data set [2], 46 nM.
As for `NC(=O)c1cnc2[nH]ccc2c1N[C@H]1CCCN(Cc2ccccc2)C1`, the IC50 in data set [1] is 130 nM; in data set [2] it was 640 nM.
